Data published in US20240076347A1, “METHODS FOR PREVENTING FUNGAL INFECTIONS” (Cidara Therapeutics, Inc., priority 2016, published 2024).

Legend:
[1] = system: C. albicans SC-5314 biofilms; assay: Adhesion phase biofilms (prevention) on silicone elastomer discs; type: cell-based, Candida albicans; settings: 1 and 4 μg/ml
Procedure: (§1) Biofilms were formed on silicone elastomer (SE) discs using a catheter-associated-biofilm model (Chandra et al., Nature Protocols 3:1909, 2008; Chandra et al., J. […] Chandra et al., J. Dental Research 80: 903, 2001). For evaluation of activity against adhesion phase biofilms (prevention), Candida cells were adhered to catheter discs for 90 min. […] Discs incubated with fluconazole or media alone were used as controls in all experiments. […] Chandra et al., J. […] Chandra et al., J. Dental Research 80: 903, 2001). Following incubation with drugs, discs were transferred to fresh plates containing phosphate buffered saline with XTT and menadione, incubated for 3 h at 37° C. and optical density was read at 492 nm. Separate batches of biofilms were stained with fluorescent dyes (FUN1™, CONA) and observed under Confocal Scanning Laser Microscope (CSLM) to evaluate biofilm architecture and thickness (Chandra et al., Nature Protocols 3:1909, 2008; Chandra et al., J. […] Statistical analyses for all data were performed using GraphPad Prism 6 software. Drug treated groups were compared to control untreated groups using unpaired t-tests.

[2] = system: C. albicans SC-5314 biofilms; assay: Mature phase biofilms (treatment) on silicone elastomer discs; type: cell-based, Candida albicans; settings: 1 and 4 μg/ml
Procedure: as §1

[3] = type: in vivo, Wistar rats; settings: rat, in vivo
Procedure: Endpoints. The rats were monitored at a frequency appropriate for their clinical condition. Rat weights were recorded at least once daily to ensure animals remained within ethical limits.
(§2) Reduction in weight and general loss of condition due to estradiol treatment are also typical in this rat model. Colonization with C. albicans was determined by quantitative culture of daily vaginal lavage samples. Rats were euthanized 9 days post infection and C. albicans determined by quantitative culture of vaginal tissue (including uterine horns).

[4] = system: C. albicans strain 529L; assay: Rat model of vulvovaginal candidiasis, vaginal lavage and tissue burden; type: in vivo, Candida albicans
Procedure: Animal Strain. Wistar rats were supplied by Harlan Laboratories UK and were specific pathogen free. Rats weighed […] at the time of surgery. Ovariectomies were performed. Rats were allowed 4-7 days recovery before transportation to the facility where the experiment was to be performed. Following arrival, rats were allowed at least 4 days acclimatization before start of the experiment. Rats weighed 100-120 g at the time of ovariectomy and were about 300 g at start of the experiment.
Pre-conditioning. Female Wistar rats underwent ovariectomy at least 10 days prior to the study commencing. They were further pre-conditioned by treatment with 5 mg/kg 17-β-estradiol administered subcutaneously (SC) every other day on Days −7, −5, −3 and −1 prior to infection with C. albicans strain 529. Estradiol treatment continued every other day throughout the study to 7 days post-infection.
Yeast Isolate. Candida albicans strain 529L was used in this chronic rat vaginal infection model.
Infection. Yeast strains were inoculated aerobically onto Sabouraud dextrose agar media (SAB) containing 0.05 mg/mL chloramphenicol and incubated at 30° C. for 48-72 h. 18-24 h prior to infection, Yeast Peptone Dextrose (YPD) broths were inoculated with 2-3 isolated colonies from agar plates and incubated overnight (37° C. on an orbital shaker). Broths containing C. albicans strain 529L were washed 3 times with sterile phosphate buffered saline (PBS) before dilution to the correct inoculum for infection. Cell counts were determined using a haemocytometer and confirmed by quantitative culture on Sabouraud dextrose agar.
Rats were infected with 0.1 mL by intravaginal administration under inhaled isoflurane anaesthesia using about 9.8×10^5 CFU/mL (9.8×10^4 CFU/Rat) C. albicans strain 529L
Treatment. […] The fluconazole treatment also started at 24 h post infection but was administered by the PO route at the dose volume and frequency shown in Table 7. The study design is further outlined in FIG. 19.
as §2
Lavage samples were obtained on Days 1 (pre-treatment), 2, 3, 5, 7, and 9 days post infection by flushing rat vaginas 4 times with 0.1 mL pre-warmed sterile PBS. Following euthanasia, vaginal tissue including uterine horns was removed prior to weighing. Tissues were homogenized in 2 mL sterile PBS using a bead-beater. Vaginal wash and tissue homogenates were diluted appropriately then quantitatively cultured on to Sabouraud dextrose agar containing 0.05 mg/mL chloramphenicol and incubated at 37° C. for up to 72 h before being counted.
Statistical analysis. Data were analyzed using StatsDirect software (version 2.7.8) using the non-parametric Kruskal-Wallis test and if this was statistically significant all pairwise comparisons were analyzed (Conover-Inman).

[5] = system: Candida auris; assay: Murine model of disseminated candidiasis (immunosuppressed CD-1 mice), treatment; type: in vivo; settings: 20 mg/kg PO, 2 doses; Day 14
Procedure: Female 6-8 week old CD-1 mice were immunosuppressed with cyclophosphamide (200 mg/kg) 3 days prior to infection and 150 mg/kg 1 day post-infection. On the day of infection, mice were inoculated with 3×10^7 C. auris blastospores via the lateral tail vein. Mice were randomized into 5 groups (n=5 for colony forming units (CFU) and n=10 for survival): CD101 20 mg/kg administered by intraperitoneal (IP) injection, fluconazole 20 mg/kg administered per os (PO), amphotericin B 0.3 mg/kg IP, and a vehicle control. Treatments were administered 2 hours post-infection (Day 1) and again on Day 4 of the study for a total of 2 doses. Mice were monitored daily and a survival curve was generated. CFU groups were sacrificed on Day 8 of the study. One kidney was removed from each mouse, homogenized, plated on potato dextrose agar (PDA), and incubated at 35° C. for 2 days to determine CFU. The remaining survival mice were monitored until the end of the study (Day 14).

[6] = lavage Day 1 post treatment (Day 2 post infection), 20 mg/kg PO dosed once
[7] = lavage Day 1 post treatment (Day 2 post infection), 20 mg/kg PO dosed twice
[8] = lavage Day 2 post treatment (Day 3 post infection), 20 mg/kg PO dosed once
[9] = lavage Day 2 post treatment (Day 3 post infection), 20 mg/kg PO dosed twice
[10] = lavage Day 4 post treatment (Day 5 post infection), 20 mg/kg PO dosed once
[11] = lavage Day 4 post treatment (Day 5 post infection), 20 mg/kg PO dosed twice
[12] = lavage Day 6 post treatment (Day 7 post infection), 20 mg/kg PO dosed once
[13] = lavage Day 6 post treatment (Day 7 post infection), 20 mg/kg PO dosed twice
[14] = lavage Day 8 post treatment (Day 9 post infection), 20 mg/kg PO dosed once
[15] = lavage Day 8 post treatment (Day 9 post infection), 20 mg/kg PO dosed twice
[16] = terminal vaginal tissue Day +9 post infection, 20 mg/kg PO dosed once
[17] = terminal vaginal tissue Day +9 post infection, 20 mg/kg PO dosed twice
[18] = vaginal lavage Day 1 post infection, pre-treatment, 20 mg/kg PO dosed once group
[19] = vaginal lavage Day 1 post infection, pre-treatment, 20 mg/kg PO dosed twice group

OC(Cn1cncn1)(Cn1cncn1)c1ccc(F)cc1F [Fluconazole, fluconazole, reference compound]
thickness of biofilms [1]: no effect on biofilm thickness | biofilm metabolic activity (XTT) ([1]; 24 h, P>0.05): did not inhibit biofilm formation | biofilm architecture (CSLM) [2]: did not affect Candida biofilms | thickness of biofilms [2]: had no effect | biofilm metabolic activity (XTT) ([2]; 24 h, P>0.05): neither concentrations of fluconazole (1 and 4 μg/ml) affected these biofilms | tolerability [3]: well tolerated with no adverse events observed | terminal vaginal tissue burden ([4]; 20 mg/kg PO once or twice, all rats, Day 9): below the limit of detection | lavage burden ([4]; Day 5 post infection, 20 mg/kg PO once or twice, all rats): below the limit of detection | Group Geometric mean [4, 6]: 1.50 × 10^2 CFU/mL | Log Group Geometric mean [4, 6]: 2.18 CFU/mL | Log reduction from vehicle control [4, 6]: 1.52 CFU/mL | Group Geometric mean [4, 7]: 1.27 × 10^2 CFU/mL | Log Group Geometric mean [4, 7]: 2.10 CFU/mL | Log reduction from vehicle control [4, 7]: 1.59 CFU/mL | burden vs vehicle, statistics ([4]; lavage Day 2 post infection): neither the CD101 nor fluconazole burden was statistically different from the vehicle burden | reduction in burden ([4]; lavage Day 2 post infection, fluconazole 20 mg/kg PO): about 1.6 Log10 CFU/mL | Group Geometric mean [4, 8]: 1.00 CFU/mL | Log Group Geometric mean [4, 8]: 0.00 CFU/mL | Log reduction from vehicle control [4, 8]: 3.57 CFU/mL | Group Geometric mean [4, 9]: 1.49 CFU/mL | Log Group Geometric mean [4, 9]: 0.17 CFU/mL | Log reduction from vehicle control [4, 9]: 3.40 CFU/mL | rats having burden below the limit of detection ([4]; lavage Day 3 post infection, 20 mg/kg PO once or twice): 11/12 | burden vs vehicle, statistics ([4]; lavage Day 3 post infection, all treatments): statistically different from the vehicle treatments | Group Geometric mean [4, 10]: 1.00 CFU/mL | Log Group Geometric mean [4, 10]: 0.00 CFU/mL | Log reduction from vehicle control [4, 10]: 4.22 CFU/mL | Group Geometric mean [4, 11]: 1.00 CFU/mL | Log Group Geometric mean [4, 11]: 0.00 CFU/mL | Log reduction from vehicle control [4, 11]: 4.22 CFU/mL | Group Geometric mean [4, 12]: 1.00 CFU/mL | Log Group Geometric mean [4, 12]: 0.00 CFU/mL | Log reduction from vehicle control [4, 12]: 4.18 CFU/mL | Group Geometric mean [4, 13]: 1.00 CFU/mL | Log Group Geometric mean [4, 13]: 0.00 CFU/mL | Log reduction from vehicle control [4, 13]: 4.18 CFU/mL | Group Geometric mean [4, 14]: 1.00 CFU/mL | Log Group Geometric mean [4, 14]: 0.00 CFU/mL | Log reduction from vehicle control [4, 14]: 4.30 CFU/mL | Group Geometric mean [4, 15]: 1.00 CFU/mL | Log Group Geometric mean [4, 15]: 0.00 CFU/mL | Log reduction from vehicle control [4, 15]: 4.30 CFU/mL | Group Geometric mean [4, 16]: 1.00 CFU/g | Log Group Geometric mean [4, 16]: 0.00 CFU/g | Log reduction from vehicle control [4, 16]: 5.49 CFU/g | Group Geometric mean [4, 17]: 1.00 CFU/g | Log Group Geometric mean [4, 17]: 0.00 CFU/g | Log reduction from vehicle control [4, 17]: 5.49 CFU/g | Group Geometric mean [4, 18]: 3.16 × 10^3 CFU/mL | Log Group Geometric mean [4, 18]: 3.50 CFU/mL | Log reduction from vehicle control [4, 18]: −1.06 CFU/mL | Group Geometric mean [4, 19]: 1.04 × 10^3 CFU/mL | Log Group Geometric mean [4, 19]: 3.02 CFU/mL | Log reduction from vehicle control [4, 19]: −0.58 CFU/mL | percent survival at the end of the study [5]: 0%
